Reference: ChEMBL document CHEMBL1201862, “PubChem BioAssay data set” (2004)
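All cell lines were grown in 96-well plates and treated with compound for 48 hours. GI50 marks 50% less growth.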 The source made the active and inactive calls. Rule as the data show it: active = GI50 up to about 1.1 µM and inactive = higher.

Key:
Experiment in all cases: NCI-60 cell line screen, 48 h
CCRF-CEM = system: CCRF-CEM
SNB-19 = system: SNB-19
SF-268 = system: SF-268
K562 = system: K562
BT-549 = system: BT-549
ACHN = system: ACHN
SK-MEL-2 = system: SK-MEL-2
SK-MEL-28 = system: SK-MEL-28
U-251 = system: U-251
NCI-H23 = system: NCI-H23
DU-145 = system: DU-145
786-0 = system: 786-0
COLO 205 = system: COLO 205
UACC-257 = system: UACC-257
UO-31 = system: UO-31
PC-3 = system: PC-3
HCC 2998 = system: HCC 2998
SK-MEL-5 = system: SK-MEL-5
HT-29 = system: HT-29
HCT-116 = system: HCT-116
EKVX = system: EKVX
SK-OV-3 = system: SK-OV-3
HL-60 = system: HL-60
SW-620 = system: SW-620
TK-10 = system: TK-10
OVCAR-5 = system: OVCAR-5
A498 = system: A498
MDA-N = system: MDA-N
SNB-75 = system: SNB-75
UACC-62 = system: UACC-62
SF-539 = system: SF-539
HCT-15 = system: HCT-15
NCI/ADR-RES = system: NCI/ADR-RES
OVCAR-3 = system: OVCAR-3
MDA-MB-231 = system: MDA-MB-231
T47D = system: T47D
Malme-3M = system: Malme-3M
IGROV-1 = system: IGROV-1
SN12C = system: SN12C
KM12 = system: KM12
OVCAR-8 = system: OVCAR-8
HOP-62 = system: HOP-62
NCI-H226 = system: NCI-H226
SF-295 = system: SF-295
MOLT-4 = system: MOLT-4
SR = system: SR
MCF7 = system: MCF7
NCI-H460 = system: NCI-H460
NCI-H522 = system: NCI-H522
Hs-578T = system: Hs-578T
A549 = system: A549
LOX IMVI = system: LOX IMVI
MDA-MB-435 = system: MDA-MB-435
CAKI-1 = system: CAKI-1
M14 = system: M14
RPMI-8226 = system: RPMI-8226
OVCAR-4 = system: OVCAR-4
RXF 393 = system: RXF 393

In the case of `NCCCCNCCCN1CCOC1=O`, the GI50 (CCRF-CEM) is reported as > 100 µM (inactive), the GI50 (SNB-19) is reported as > 100 µM (inactive) and the GI50 (SF-268) is reported as > 100 µM (inactive). For the same compound, the GI50 (K562) was > 100 µM (inactive), the GI50 (BT-549) was > 100 µM (inactive) and the GI50 (ACHN) was > 100 µM (inactive). The GI50 (SK-MEL-2) was > 100 µM (inactive), the GI50 (SK-MEL-28) was > 100 µM (inactive) and the GI50 (U-251) was > 100 µM (inactive). The GI50 (NCI-H23) was > 100 µM (inactive), the GI50 (DU-145) was > 100 µM (inactive) and the GI50 (786-0) was > 100 µM (inactive). For the same compound, the GI50 (COLO 205) was > 100 µM (inactive), the GI50 (UACC-257) was > 100 µM (inactive) and the GI50 (UO-31) was > 100 µM (inactive). The GI50 (PC-3) was > 100 µM (inactive), the GI50 (HCC 2998) was > 100 µM (inactive) and the GI50 (SK-MEL-5) was > 100 µM (inactive). The GI50 (HT-29) was > 100 µM (inactive), the GI50 (HCT-116) was > 100 µM (inactive) and the GI50 (EKVX) was > 100 µM (inactive). For the same compound, the GI50 (SK-OV-3) was > 100 µM (inactive), the GI50 (HL-60) was > 100 µM (inactive) and the GI50 (SW-620) was > 100 µM (inactive). The GI50 (TK-10) was 70.8 µM (inactive), the GI50 (OVCAR-5) was > 100 µM (inactive) and the GI50 (A498) was > 100 µM (inactive). For the same compound, the GI50 (MDA-N) was > 100 µM (inactive), the GI50 (SNB-75) was > 100 µM (inactive) and the GI50 (UACC-62) was > 100 µM (inactive). For the same compound, the GI50 (SF-539) was > 100 µM (inactive), the GI50 (HCT-15) was greater than 100 µM and the GI50 (NCI/ADR-RES) was > 100 µM (inactive). The GI50 (OVCAR-3) was > 100 µM (inactive), the GI50 (MDA-MB-231) was > 100 µM (inactive) and the GI50 (T47D) was > 100 µM (inactive). The GI50 (Malme-3M) was > 100 µM (inactive), the GI50 (IGROV-1) was > 100 µM (inactive) and the GI50 (SN12C) was > 100 µM (inactive). The GI50 (KM12) was > 100 µM (inactive), the GI50 (OVCAR-8) was > 100 µM (inactive) and the GI50 (HOP-62) was > 100 µM (inactive). The GI50 (NCI-H226) was > 100 µM (inactive), the GI50 (SF-295) was > 100 µM (inactive) and the GI50 (MOLT-4) was > 100 µM (inactive). The GI50 (SR) was > 100 µM (inactive), the GI50 (MCF7) was > 100 µM (inactive) and the GI50 (NCI-H460) was > 100 µM (inactive). For the same compound, the GI50 (NCI-H522) was > 100 µM (inactive), the GI50 (Hs-578T) was > 100 µM (inactive) and the GI50 (A549) was > 100 µM (inactive). For the same compound, the GI50 (LOX IMVI) was > 100 µM (inactive), the GI50 (MDA-MB-435) was > 100 µM (inactive) and the GI50 (CAKI-1) was > 100 µM (inactive). The GI50 (M14) was > 100 µM (inactive) and the GI50 (RPMI-8226) was > 100 µM (inactive).
With `O=c1cc(CNC2CC3CCC2C3)[nH]c(=O)[nH]1` (stereo not drawn) the GI50 (CCRF-CEM) was > 100 µM (inactive), the GI50 (SNB-19) was > 100 µM (inactive) and the GI50 (SF-268) was > 100 µM (inactive). For the same compound, the GI50 (K562) was > 100 µM (inactive), the GI50 (BT-549) was > 100 µM (inactive) and the GI50 (ACHN) was > 100 µM (inactive). For the same compound, the GI50 (SK-MEL-2) was > 100 µM (inactive), the GI50 (SK-MEL-28) was > 100 µM (inactive) and the GI50 (U-251) was > 100 µM (inactive). For the same compound, the GI50 (NCI-H23) was > 100 µM (inactive), the GI50 (DU-145) was > 100 µM (inactive) and the GI50 (786-0) was > 100 µM (inactive). For the same compound, the GI50 (COLO 205) was > 100 µM (inactive), the GI50 (UACC-257) was > 100 µM (inactive) and the GI50 (UO-31) was > 100 µM (inactive). The GI50 (PC-3) was > 100 µM (inactive), the GI50 (HCC 2998) was > 100 µM (inactive) and the GI50 (SK-MEL-5) was > 100 µM (inactive). The GI50 (OVCAR-4) was > 100 µM (inactive), the GI50 (HT-29) was > 100 µM (inactive) and the GI50 (HCT-116) was > 100 µM (inactive). The GI50 (EKVX) was > 100 µM (inactive), the GI50 (SK-OV-3) was > 100 µM (inactive) and the GI50 (HL-60) was > 100 µM (inactive). For the same compound, the GI50 (SW-620) was > 100 µM (inactive), the GI50 (TK-10) was > 100 µM (inactive) and the GI50 (OVCAR-5) was > 100 µM (inactive). The GI50 (A498) was > 100 µM (inactive), the GI50 (MDA-N) was > 100 µM (inactive) and the GI50 (SNB-75) was > 100 µM (inactive). The GI50 (UACC-62) was > 100 µM (inactive), the GI50 (SF-539) was > 100 µM (inactive) and the GI50 (HCT-15) was greater than 100 µM. The GI50 (NCI/ADR-RES) was > 100 µM (inactive), the GI50 (OVCAR-3) was > 100 µM (inactive) and the GI50 (RXF 393) was > 100 µM (inactive). For the same compound, the GI50 (MDA-MB-231) was > 100 µM (inactive), the GI50 (T47D) was > 100 µM (inactive) and the GI50 (Malme-3M) was > 100 µM (inactive). For the same compound, the GI50 (IGROV-1) was > 100 µM (inactive), the GI50 (SN12C) was > 100 µM (inactive) and the GI50 (KM12) was > 100 µM (inactive). The GI50 (OVCAR-8) was > 100 µM (inactive), the GI50 (HOP-62) was > 100 µM (inactive) and the GI50 (SF-295) was > 100 µM (inactive). For the same compound, the GI50 (MOLT-4) was > 100 µM (inactive), the GI50 (SR) was > 100 µM (inactive) and the GI50 (MCF7) was > 100 µM (inactive). For the same compound, the GI50 (NCI-H460) was > 100 µM (inactive), the GI50 (NCI-H522) was > 100 µM (inactive) and the GI50 (Hs-578T) was > 100 µM (inactive). For the same compound, the GI50 (A549) was > 100 µM (inactive), the GI50 (LOX IMVI) was > 100 µM (inactive) and the GI50 (MDA-MB-435) was > 100 µM (inactive). The GI50 (CAKI-1) was > 100 µM (inactive), the GI50 (M14) was > 100 µM (inactive) and the GI50 (RPMI-8226) was > 100 µM (inactive).
